Laboratory results from US20120012822A1, “AROMATIC COMPOUND AND METHOD FOR PRODUCING SAME” (KEIO UNIVERSITY, priority 2009, published 2012).

Assays:
[1] = Solubility in hexane; assay type: physicochemical
Experimental: Next, 13.5 mg of 5,7,12,14-tetrakis(2-(triethylsilyl)ethyl)pentacene-6,13-dione was added to 51.6 mg of hexane at 22° C., and allowed to completely dissolve.
Next, 9.3 mg of a 1:1 mixture of 4,6,10,12-tetrakis(2-(triethylsilyl)ethyl)anthra[2,3-b : 6,7-b′]dithiophene-5,11-dione and 4,6,10,12-tetrakis(2-(triethylsilyl)ethyl)anthra[2,3-b:7,6-b′]dithiophene-5,11-dione was added to 180.1 mg of hexane at 26° C., and allowed to completely dissolve. The solubility in hexane was 5 wt %.

For `CC[Si](CC)(CC)CCc1c2c(c(CC[Si](CC)(CC)CC)c3ccccc13)C(=O)c1c(c(CC[Si](CC)(CC)CC)c3ccccc3c1CC[Si](CC)(CC)CC)C2=O` [5,7,12,14-tetrakis(2-(triethylsilyl)ethyl)pentacene-6,13-dione], which melting point is on record?
The melting point was 171 to 171.5 °C.

And the solubility in hexane [1]?
The solubility in hexane was 26 wt %.
